# Columns and labels:
# BCRP [1] = settings: BCRP inhibitor; cited from earlier work
# [2] = MTT cytotoxicity assay on Caco-2 cells; type: cell-based; settings: human, 48 h exposure
# Procedure: Caco-2 cells were maintained in DMEM containing 10% FBS (inactivation at 56°C for 30 min), 1% NEAA, and 1% penicillin and streptomycin solution in a humidified atmosphere with 5% CO2 at 37°C. The medium was replaced every 2 days, and the cells were passaged at 80 to 90% confluence using trypsin/phosphate-buffered saline (PBS, pH 7.4). The cytotoxicity of rhein, RE, PE, RPE, and TWCQT to Caco-2 cells was evaluated by MTT assay. Briefly, 200 μl of Caco-2 cells was seeded in a 96-well plate (Coring, NY, USA) at a density of 2 × 10^4 cells/ml. Following incubation for 24 h, different concentrations of test solution were added. Thereafter, 20 μl of 5 mg/mL MTT was added, the medium was removed after 4 h, and the remaining formazan crystals were solubilized with 150 μl of dimethyl sulfoxide (DMSO). The absorbance was measured at 490 nm on a microplate reader (Thermo Scientific, Tokyo, Japan). Cells incubated without the test samples were used as controls. In each MTT assay, every sample was tested in 6 replicates.
# [3] = Transport of rhein across the Caco-2 cell monolayer (A to B, B to A); type: in vitro ADME, human; settings: human, Caco-2, PE, RPE
# Procedure: (§1) For transport experiments, the cells were seeded at a density of 1 × 10^5 cells/ml on polycarbonate membranes of cell culture inserts (6.5 mm membrane diameter, 0.4 μm pore size, and 0.33 cm^2 surface area) and placed in 12-well cell culture clusters. The transepithelial electrical resistance (TEER) was assessed using a Millicell ERS-2 (Millipore, USA) to reflect the tightness of intercellular junctions. […] The transports of rhein alone, rhein in RE, PE, RPE, and TWCQT across Caco-2 monolayers were investigated. Briefly, the cell monolayers were washed 3 times with D-Hanks. After each wash, the plates were incubated in fresh D-Hanks for 30 min at 37°C. The transport experiments were conducted by adding the test solution to either the apical (A, 0.5 ml) or basolateral side (B, 1.5 ml), while the receiving chamber contained the corresponding volume of prewarmed drug-free D-Hanks. Every experiment was repeated 3 times, and the plates were incubated in an orbital shaker at 37°C. […] sequential samples (50 μl) were taken at different times (30, 60, 90, 120, and 150 min) from both sides of the cell monolayer. The same volume of D-Hanks was immediately added to replace the samples obtained. […] All inhibitors were loaded onto the A side of the monolayers. […] The concentrations of all the samples were analyzed by UPLC-QTOF-HRMS-MS. Data in the present study were presented as mean ± standard deviation (SD). Significant analysis was performed using Statistical Package for Social Sciences (SPSS) version 16.0 (SPSS Inc., Chicago, IL, USA). Statistical significance was determined by one-way ANOVA with Dunnett's test and differences were considered significant when p < 0.05. In the Caco-2 cell model, the rate of transport was obtained from the amount transported versus time curve using linear regression. The apparent permeability (Papp) used as an expression of the absorption rate constant was calculated as follows: Papp = (dQ/dt)/(A × C0), where dQ/dt is the rate at which the compound appears in the receiver chamber (mg/s), A is the surface area of the filter membrane ([…]), and C0 is the initial concentration in the donor chamber (mg/mL). Efflux ratio (ER) was calculated from the following equation: ER = […]), where Papp(B to A) is the Papp value measured in the B to A direction and Papp(A to B) is the Papp value measured in the A to B direction.
# BCRP [4] = test: as above; type: in vitro ADME, human; settings: human, Caco-2, with Ko143 10 μmol/ml, loaded onto the A side; rhein 27.3 μg/ml; Ko143 10 μmol/ml (BCRP inhibitor); read-out: ER of rhein in presence of Ko143
# Procedure: as §1
# Caco-2 cell monolayer = test: as above; type: in vitro ADME, human
# Procedure: as §1
# MRP2 = test: as above; type: in vitro ADME, human; settings: human, Caco-2, with MK-571 50 μmol/ml, loaded onto the A side; rhein 27.3 μg/ml; MK-571 50 μmol/ml (MRP2 inhibitor); read-out: ER of rhein in presence of MK-571
# Procedure: as §1
# P-gp = test: as above; type: in vitro ADME, human; settings: human, Caco-2, with verapamil 50 μmol/ml, loaded onto the A side; rhein 27.3 μg/ml; verapamil 50 μmol/ml (P-gp inhibitor); read-out: ER of rhein in presence of verapamil
# Procedure: as §1
# Caco-2 cells = test: Cellular uptake of rhein in cultured Caco-2 cell monolayers; type: in vitro ADME, human; settings: rhein 27.3 μg/ml
# Procedure: Cell monolayers were prepared as described for the transport studies. […] Cells attached to the polycarbonate membranes were cut off from the inserts, immersed in 1 ml blank D-Hanks, and sonicated for 15 min. The mixture was centrifuged at 10,000 ×g for 5 min. The concentrations of all the samples were analyzed by UPLC-QTOF-HRMS-MS.
# [5] = test system: human colon adenocarcinoma cells (Caco-2); parameters: method as in PMID 19538468; settings: Caco-2, 0.1–10 μg/ml; cited from earlier work
smiles,measurement,setting,value
COc1ccc2c3c([nH]c2c1)[C@H](CC(C)C)N1C(=O)[C@H](CCC(=O)OC(C)(C)C)NC(=O)[C@@H]1C3 [Ko143],selectivity over P-gp and MRP1 transporters,BCRP [1],higher than 200 fold
O=C(O)c1cc(O)c2c(c1)C(=O)c1cccc(O)c1C2=O [Rhein],IC50 at 48 h,[2],3490 ± 960 µg/mL
same,"Papp at 150 min, 27.3 μg/ml","[3]; apical to basolateral, rhein 27.3 μg/ml, TWCQT 1 mg/ml, read-out: Papp PAB of rhein",2.31 ± 0.13 ×10⁻⁶ cm/s
same,"Papp at 150 min, 54.6 μg/ml","[3]; apical to basolateral, rhein 54.6 μg/ml, TWCQT 2 mg/ml, read-out: Papp PAB of rhein",2.58 ± 0.26 ×10⁻⁶ cm/s
same,"Papp at 150 min, 109.2 μg/ml","[3]; apical to basolateral, rhein 109.2 μg/ml, TWCQT 4 mg/ml, read-out: Papp PAB of rhein",2.52 ± 0.19 ×10⁻⁶ cm/s
same,"Papp B→A at 150 min, 27.3 μg/ml","[3]; basolateral to apical, rhein 27.3 μg/ml, TWCQT 1 mg/ml, read-out: Papp PBA of rhein",6.54 ± 0.27 ×10⁻⁶ cm/s
same,"Papp B→A at 150 min, 54.6 μg/ml","[3]; basolateral to apical, rhein 54.6 μg/ml, TWCQT 2 mg/ml, read-out: Papp PBA of rhein",7.02 ± 0.58 ×10⁻⁶ cm/s
same,"Papp B→A at 150 min, 109.2 μg/ml","[3]; basolateral to apical, rhein 109.2 μg/ml, TWCQT 4 mg/ml, read-out: Papp PBA of rhein",6.72 ± 0.31 ×10⁻⁶ cm/s
same,"efflux ratio at 150 min, 27.3 μg/ml","[3]; rhein 27.3 μg/ml, TWCQT 1 mg/ml, read-out: ER PBA/PAB of rhein",2.83
same,"efflux ratio at 150 min, 54.6 μg/ml","[3]; rhein 54.6 μg/ml, TWCQT 2 mg/ml, read-out: ER PBA/PAB of rhein",2.72
same,"efflux ratio at 150 min, 109.2 μg/ml","[3]; rhein 109.2 μg/ml, TWCQT 4 mg/ml, read-out: ER PBA/PAB of rhein",2.38
same,"efflux ratio at 150 min, 27.3 μg/ml",BCRP [4],1.27
same,ER of rhein at different concentrations,"Caco-2 cell monolayer; 8.61, 17.22, 34.44, 27.3, 54.6 and 109.2 μg/ml rhein",more than 1.5
same,amounts of rhein transported from B to A after Ko143,"Caco-2 cell monolayer; rhein 27.3 μg/ml, Ko143 10 μmol/ml, p < 0.01",significantly decreased
same,influence of MK-571 on Papp values of rhein from B to A,"Caco-2 cell monolayer; rhein 27.3 μg/ml, MK-571 50 μmol/ml, p < 0.05",significant influences
same,influence of verapamil on Papp values of rhein from A to B or B to A,"Caco-2 cell monolayer; rhein 27.3 μg/ml, verapamil 50 μmol/ml",no significant influence
same,"efflux ratio at 150 min, 27.3 μg/ml",MRP2,1.98
same,"efflux ratio at 150 min, 27.3 μg/ml",P-gp,2.12
same,intracellular accumulation of rhein after Ko143,"Caco-2 cells; 2 h, Ko143 10 μmol/ml",significantly increased
same,intracellular amounts of rhein after MK-571,"Caco-2 cells; 2 h, MK-571 50 μmol/ml",no significant changes
same,intracellular amounts of rhein after verapamil,"Caco-2 cells; 2 h, verapamil 50 μmol/ml",no significant changes
same,cellular uptake of rhein,"Caco-2 cells; A compartment, 2 h incubation",0.68 ng/μg protein
same,cytotoxic and genotoxic effects,[5],devoid of cytotoxic and genotoxic effects

# Source: article PMC5831597, “Alleviating the Intestinal Absorption of Rhein in Rhubarb through Herb Compatibility in Tiaowei Chengqi Tang in Caco-2 Cells” (Evidence-based Complementary and Alternative Medicine : eCAM, 2018)
